Measured values taken from patent US20060069132A1, “Azolecarboxamide herbicides” (priority 2004, published 2006).

What was measured:
barnyardgrass [1] = test: Test B pre-/postemergence herbicide test; type: in vivo, Echinochloa crus-galli; conditions: for Barnyardgrass plant response rating: Postemergence, scale 0 (no effect) to 100 (complete control)
Method in brief: (§1)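 Species tested were Echinochloa crus-galli, Ipomoea coccinea, Xanthium strumarium and Oryza sativa, treated both before emergence and at the 1- to 4-leaf stage; rice and barnyardgrass were also tested under flooding at 2 leaves. Greenhouse incubation lasted 13–15 days before visual 0–100 scoring.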

Surinam grass = test: Test B pre-/postemergence herbicide test; type: in vivo, Urochloa decumbens
Method in brief: (§2)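 Plants compared with untreated controls 13–15 days post-treatment and given a visual 0–100 injury score. Applications: preemergence to seeds; postemergence at 1- to 4-leaf (2–18 cm); paddy species flooded, 2-leaf stage. Vehicle non-phytotoxic, surfactant included.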

cocklebur = test: Test B pre-/postemergence herbicide test; type: in vivo, Xanthium strumarium
Method in brief: as §1

corn = test: Test B pre-/postemergence herbicide test; type: in vivo, Zea mays
Method in brief: as §2

large crabgrass = test: Test B pre-/postemergence herbicide test; type: in vivo, Digitaria sanguinalis
Method in brief: as §2

giant foxtail = test: Test B pre-/postemergence herbicide test; type: in vivo, Setaria faberi
Method in brief: as §2

lambsquarters = test: Test B pre-/postemergence herbicide test; type: in vivo, Chenopodium album
Method in brief: as §2

morningglory = test: Test B pre-/postemergence herbicide test; type: in vivo, Ipomoea coccinea
Method in brief: as §1

pigweed = test: Test B pre-/postemergence herbicide test; type: in vivo, Amaranthus retroflexus
Method in brief: as §2

velvetleaf = test: Test B pre-/postemergence herbicide test; type: in vivo, Abutilon theophrasti
Method in brief: as §2

blackgrass [2] = test: Test B postemergence herbicide test; type: in vivo, Alopecurus myosuroides
Method in brief: (§3)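 Plants grow to 1- to 4-leaf stage (2–18 cm) for postemergence spraying, or to 2-leaf stage for the paddy test. Formulated compound is applied. Greenhouse holding lasts 13–15 days. Response is scored visually relative to controls, 0 no effect to 100 complete control; a dash means no result.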

wheat [3] = test: Test B postemergence herbicide test; type: in vivo, Triticum aestivum; design: key to Wheat plant response rating: 0 = no effect, 100 = complete control
Method in brief: (§4)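 Visual ratings, 0 (no effect) to 100 (complete control), made versus controls after 13–15 d greenhouse. Paddy plants treated at 2-leaf stage; postemergence plants at 1- to 4-leaf stage, 2–18 cm tall.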

wild oat [4] = test: Test B postemergence herbicide test; type: in vivo, Avena fatua
Method in brief: as §4

rice = test: Test B flooded paddy test; type: in vivo, Oryza sativa; conditions: 1000 g ai/ha, scale 0 to 100 (0 no effect, 100 complete control)
Method in brief: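 Formulated test chemicals went onto postemergence plants measuring 2 to 18 cm, at one to four leaves. For the paddy assay, species had reached two leaves. Scoring took place 13–15 days later by eye, relative to untreated plants, using 0 for no effect up to 100 for full control.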

[5] = tested on: small flower umbrella sedge; test: Test B flooded paddy test; type: in vivo, Cyperus difformis; conditions: 1000 g ai/ha, scale 0 to 100 (0 no effect, 100 complete control)
Method in brief: as §3

ducksalad = test: Test B flooded paddy test; type: in vivo, Heteranthera limosa; conditions: 1000 g ai/ha, scale 0 to 100 (0 no effect, 100 complete control)
Method in brief: as §3

barnyardgrass [6] = test: Test B flooded paddy test; type: in vivo, Echinochloa crus-galli; conditions: 1000 g ai/ha, scale 0 to 100 (0 no effect, 100 complete control)
Method in brief: as §3

winter barley = test: Test C postemergence herbicide test; type: in vivo, Hordeum vulgare
Method in brief: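 Postemergence sprays were applied to plants 2 to 18 cm tall (1- to 4-leaf stage); in the flooded paddy test, barnyardgrass was grown to the 2-leaf stage. After 12 to 14 days in a greenhouse, injury was visually rated against untreated controls on a 0–100 scale (100 = complete control).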

blackgrass [7] = test: Test C postemergence herbicide test; type: in vivo, Alopecurus myosuroides
Method in brief: (§5)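 Injury scored visually against controls on a 0 (no effect) to 100 (complete control) scale, 12 to 14 days after treatment in greenhouse. Flooded paddy plants treated at 2-leaf stage; postemergence plants at 1- to 4-leaf stage, 2 to 18 cm tall.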

canarygrass = test: Test C postemergence herbicide test; type: in vivo, Phalaris minor
Method in brief: as §5

downy bromegrass = test: Test C postemergence herbicide test; type: in vivo, Bromus tectorum
Method in brief: as §5

green foxtail = test: Test C postemergence herbicide test; type: in vivo, Setaria viridis
Method in brief: as §5

Italian ryegrass = test: Test C postemergence herbicide test; type: in vivo, Lolium multiflorum
Method in brief: as §5

wheat [8] = test: Test C postemergence herbicide test; type: in vivo, Triticum aestivum
Method in brief: as §5

wild oat [9] = test: Test C postemergence herbicide test; type: in vivo, Avenafatua
Method in brief: as §5

windgrass = test: Test C postemergence herbicide test; type: in vivo, Apera spica-venti
Method in brief: as §5

[10] = 125 g ai/ha, 0 is no effect, 100 is complete control, preemergence
[11] = Postemergence, 500 g ai/ha, scale 0 (no effect) to 100 (complete control)
[12] = postemergence, 125 g ai/ha, scale 0 to 100
[13] = Postemergence, 500 g ai/ha, scale 0 to 100
[14] = Postemergence, 250 g ai/ha, scale 0 to 100, 0 no effect, 100 complete control
[15] = postemergence, 62 g ai/ha, scale 0 to 100
[16] = Postemergence, 500 g ai/ha, scale 0 to 100, 0 no effect, 100 complete control

## CN(C)C(=O)c1cccc(NC(=O)c2nn(C(C)(C)C)nc2Br)c1 [Compound 429]
Barnyardgrass [1]; [10]
  Plant response rating (0 to 100 scale), Barnyardgrass: 100
Barnyardgrass [1]; 125 g ai/ha
  Barnyardgrass plant response rating: 30
Barnyardgrass [1]; 500 g ai/ha
  Barnyardgrass plant response rating: 60
Surinam grass; [10]
  Plant response rating (0 to 100 scale), Surinam Grass: 70
Surinam grass; [11]
  Surinam Grass plant response rating: 30
Surinam grass; [12]
  Surinam Grass plant response rating: 20
cocklebur; [10]
  Plant response rating (0 to 100 scale), Cocklebur: 60
cocklebur; [11]
  Cocklebur plant response rating: 70
cocklebur; [12]
  Cocklebur plant response rating: 60
corn; [10]
  Plant response rating (0 to 100 scale), Corn: 40
corn; [11]
  Corn plant response rating: 40
corn; [12]
  Corn plant response rating: 30
Large crabgrass; [10]
  Plant response rating (0 to 100 scale), Crabgrass, Large: 100
Large crabgrass; [11]
  Crabgrass, Large plant response rating: 40
Large crabgrass; [12]
  Crabgrass, Large plant response rating: 30
Giant foxtail; [10]
  Plant response rating (0 to 100 scale), Foxtail, Giant: 90
Giant foxtail; [11]
  Foxtail, Giant plant response rating: 40
Giant foxtail; [12]
  Foxtail, Giant plant response rating: 30
lambsquarters; [10]
  Plant response rating (0 to 100 scale), Lambsquarters: 100
lambsquarters; [11]
  Lambsquarters plant response rating: 70
lambsquarters; [12]
  Lambsquarters plant response rating: 50
morningglory; [10]
  Plant response rating (0 to 100 scale), Morningglory: 90
morningglory; [11]
  Morningglory plant response rating: 80
morningglory; [12]
  Morningglory plant response rating: 70
pigweed; [10]
  Plant response rating (0 to 100 scale), Pigweed: 100
pigweed; [11]
  Pigweed plant response rating: 50
pigweed; [12]
  Pigweed plant response rating: 40
velvetleaf; [10]
  Plant response rating (0 to 100 scale), Velvetleaf: 80
velvetleaf; [11]
  Velvetleaf plant response rating: 60
velvetleaf; [12]
  Velvetleaf plant response rating: 50
Blackgrass [2]; [11]
  Blackgrass plant response rating: 50
Blackgrass [2]; [12]
  Blackgrass plant response rating: 20
Wheat [3]; 500 g ai/ha, scale 0 to 100, 0 no effect, 100 complete control, preemergence
  Wheat plant response rating: 100
Wheat [3]; [11]
  Wheat plant response rating: 40
Wheat [3]; [12]
  Wheat plant response rating: 20
Wild oat [4]; [11]
  Oat, Wild plant response rating: 40
Wild oat [4]; [12]
  Oat, Wild plant response rating: 30
rice
  Rice plant response rating: 70
[5]
  Sedge, Umbrella plant response rating: 90
ducksalad
  Ducksalad plant response rating: 60
Barnyardgrass [6]
  Barnyardgrass plant response rating: 100
Winter barley; [13]
  Barley, Winter plant response rating: 40
Winter barley; Postemergence, 125 g ai/ha, scale 0 to 100, 0 no effect, 100 complete control
  Plant response rating, Barley, Winter: 35
Winter barley; [14]
  Plant response rating, Barley, Winter: 35
Winter barley; postemergence, 62 g ai/ha, scale 0 to 100 (0 no effect, 100 complete control)
  Plant response rating, Barley, Winter: 25
Blackgrass [7]; [13]
  Blackgrass plant response rating: 65
Blackgrass [7]; [14]
  Plant response rating, Blackgrass: 60
Blackgrass [7]; [12]
  Plant response rating, Blackgrass: 60
Blackgrass [7]; [15]
  Plant response rating, Blackgrass: 45
canarygrass; [14]
  Plant response rating, Canarygrass: 55
canarygrass; [16]
  Plant response rating, Canarygrass: 60
canarygrass; [12]
  Plant response rating, Canarygrass: 40
canarygrass; [15]
  Plant response rating, Canarygrass: 20
Downy bromegrass; [14]
  Plant response rating, Bromegrass, Downy: 45
Downy bromegrass; [16]
  Plant response rating, Bromegrass, Downy: 55
Downy bromegrass; [12]
  Plant response rating, Bromegrass, Downy: 40
Downy bromegrass; [15]
  Plant response rating, Bromegrass, Downy: 40
Green foxtail; [14]
  Plant response rating, Foxtail, Green: 55
Green foxtail; [16]
  Plant response rating, Foxtail, Green: 65
Green foxtail; [12]
  Plant response rating, Foxtail, Green: 50
Green foxtail; [15]
  Plant response rating, Foxtail, Green: 40
Italian ryegrass; [16]
  Plant response rating, Ryegrass, Italian: 60
Italian ryegrass; [12]
  Plant response rating, Ryegrass, Italian: 50
Italian ryegrass; [15]
  Plant response rating, Ryegrass, Italian: 45
Wheat [8]; [16]
  Plant response rating, Wheat: 45
Wheat [8]; [12]
  Plant response rating, Wheat: 35
Wheat [8]; [15]
  Plant response rating, Wheat: 25
Wild oat [9]; [16]
  Plant response rating, Oat, Wild: 65
Wild oat [9]; [12]
  Plant response rating, Oat, Wild: 60
Wild oat [9]; [15]
  Plant response rating, Oat, Wild: 45
windgrass; [16]
  Plant response rating, Windgrass: 60
windgrass; [12]
  Plant response rating, Windgrass: 40
windgrass; [15]
  Plant response rating, Windgrass: 40
